The source of these data is patent US7087253B2 (AKH Arzneimittelkontor GmbH, priority 2002, dated 2006).

In the test the test system is patients with acute bronchitis. As to the kind of experiment: double blind, randomized, placebo-controlled clinical study, 14-day treatment of acute bronchitis. In kind it is in vivo. How it is done:
A parallel group of patients was treated for 14 days correspondingly with placebo or cefuroxime.

As to `CO/N=C(\C(=O)N[C@@H]1C(=O)N2C(C(=O)O)=C(COC(N)=O)CS[C@H]12)c1ccco1` [cefuroxime], where the note is “after 7±2 treatment days”, the “patients still with a pathological ausculatory finding” value stood at 26.3% and the “patients who experienced a worsening of the symptoms (terminations because of a worsening of the acute bronchitis)” value amounted to 7.6%. Also, under “after 14±2 treatment days”, the “patients with worsening of the acute bronchitis” value is listed as 16.4% and the “patients with worsening, times as many as in the Eucalyptus oil/orange oil group” value is 10 times. Further, the “patients still with a pathological ausculatory finding (pathological respiratory sounds)” value (after 14±2 days) is recorded as 7.6%. Where the note is “human, in vivo”, the “general state of health, Eucalyptus oil/orange oil group versus cefuroxime group” value is on record as “no differences worth mentioning”.
